The text below walks through data of publication PMC7994892, “The M. tuberculosis Rv1523 Methyltransferase Promotes Drug Resistance Through Methylation-Mediated Cell Wall Remodeling and Modulates Macrophages Immune Responses” (Frontiers in Cellular and Infection Microbiology, 2021).

This experiment concerns the target Rv1523 MTase (Mycobacterium tuberculosis, UniProt Q50584).

Sequence of Rv1523 MTase (Q50584 entry or part of it): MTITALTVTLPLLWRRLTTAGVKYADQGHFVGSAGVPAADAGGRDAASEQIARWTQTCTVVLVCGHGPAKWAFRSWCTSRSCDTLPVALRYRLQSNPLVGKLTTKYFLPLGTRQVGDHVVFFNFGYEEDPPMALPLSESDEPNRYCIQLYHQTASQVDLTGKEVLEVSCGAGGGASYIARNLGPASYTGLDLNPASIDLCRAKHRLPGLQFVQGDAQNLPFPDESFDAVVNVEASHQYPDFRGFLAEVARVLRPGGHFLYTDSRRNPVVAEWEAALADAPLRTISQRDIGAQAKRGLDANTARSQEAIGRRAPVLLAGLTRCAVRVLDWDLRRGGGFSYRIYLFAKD

On to `C[S+](CC[C@H](N)C(=O)O)C[C@H]1O[C@@H](n2cnc3c(N)ncnc32)[C@H](O)[C@@H]1O` (stereo partly shown) [S-adenosyl methionine], for which the “coupled colorimetric SAM methyltransferase assay, 510 nm” value is recorded as “Rv1523 MTase was able to transfer methyl group from SAM to the cell wall component”.
